Results from the supplement of paper PMC10307832.

Assays:
Test in all cases: relative viability (nuclei count vs DMSO), 5 days (fraction); higher = more cells survive
[1] = compound: O[C@@H](COc1cccc2ncccc12)CN1CCN([C@@H]2c3ccccc3[C@@H]3[C@H](c4ccccc42)C3(F)F)CC1 [Zosuquidar]
Method in brief: (§1)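 Viability here means nuclei in treated wells divided by nuclei in vehicle wells, reported as the median across plates. Only plates with control CV below 25% and at least one doubling passed. Lung cancer cell lines in 1536-well plates were exposed to five √10-spaced library-drug doses for 5 days and counted from 4× Hoechst images in MetaXpress.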

[2] = compound: C1=CC(=CC=C1NC(=S)NNC2=C(C=C(C=C2[N+](=O)[O-])C(F)(F)F)[N+](=O)[O-])F [Kobe2602]
Method in brief: as §1

[3] = compound: COc1cc2nccc(Oc3ccc(NC(=O)C4(C(=O)Nc5ccc(F)cc5)CC4)cc3)c2cc1OC [Cabozantinib]
Method in brief: as §1

[4] = compound: C1=CC(=CC=C1NC(=S)NNC2=C(C=C(C=C2[N+](=O)[O-])C(F)(F)F)[N+](=O)[O-])F [Kobe2602] + CC(=O)Nc1cccc(-n2c(=O)n(C3CC3)c(=O)c3c(Nc4ccc(I)cc4F)n(C)c(=O)c(C)c32)c1 [Trametinib] (partner 0.02 µM)
Method in brief: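 Lung cancer cell lines in 1536-well plates got either a single drug or a fixed anchor-drug dose together with five library-drug doses (not always all listed) in √10 steps, by pin tool, on the day after seeding. Nuclei were counted after 5 days, and relative viability is the treated-to-vehicle ratio of nuclei counts. Values are medians of duplicate plates.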

| Cell Line | relative viability ([1]; 0.01 µM) | relative viability ([1]; 0.03162 µM) | relative viability ([1]; 0.1 µM) | relative viability ([1]; 0.3162 µM) | relative viability ([1]; 1 µM) | relative viability ([2]; 0.2 µM) | relative viability ([2]; 0.6325 µM) | relative viability ([2]; 2 µM) | relative viability ([2]; 6.325 µM) | relative viability ([2]; 20 µM) | relative viability ([3]; 0.06325 µM) | relative viability ([3]; 0.2 µM) | relative viability ([3]; 0.6325 µM) | relative viability ([3]; 2 µM) | relative viability ([4]; first compound 0.2 µM) | relative viability ([4]; first compound 0.6325 µM) | relative viability ([4]; first compound 2 µM) | relative viability ([4]; first compound 6.325 µM) | relative viability ([4]; first compound 20 µM) | relative viability ([3]; 0.02 µM) |
| --- | --- | --- | --- | --- | --- | --- | --- | --- | --- | --- | --- | --- | --- | --- | --- | --- | --- | --- | --- | --- |
| NCI-H23 | 0.99 | 0.992 | 0.873 | 1.18 | 0.976 | 0.97 | 1.26 | 0.944 | 1.12 | 1.1 | 1.33 | 0.99 | 0.925 | 0.874 | 0.428 | 0.49 | 0.359 | 0.385 | 0.444 |  |
| NCI-H322M | 0.907 | 1.07 | 0.667 | 0.924 | 0.916 | 0.97 | 1.07 | 1.03 | 0.984 | 1.08 | 1.17 | 0.694 | 0.983 | 0.952 | 0.555 | 0.495 | 0.5 | 0.467 | 0.521 | 0.874 |
| NCI-H2126 | 0.96 | 0.996 | 0.741 | 1.03 | 1.03 | 1.01 | 1.02 | 0.975 | 0.971 | 0.961 | 1.05 | 0.991 | 0.99 | 1.11 | 0.594 | 0.598 | 0.52 | 0.577 | 0.459 | 0.747 |
| NCI-H647 | 0.908 | 0.951 | 0.918 | 1.13 | 0.884 | 0.938 | 1.09 | 0.936 | 0.91 | 0.948 | 1.14 | 0.986 | 0.92 | 0.881 | 0.383 | 0.474 | 0.505 | 0.425 | 0.494 | 0.994 |
| LU99A | 0.984 | 0.833 | 0.971 | 1.04 | 0.912 | 0.908 | 0.998 | 0.948 | 0.939 | 1.01 | 1.03 | 0.979 | 0.901 | 0.822 | 0.546 | 0.647 | 0.571 | 0.534 | 0.593 | 0.889 |
| NCI-H1666 | 0.997 | 1.08 | 0.962 | 1.08 | 0.945 | 1.06 | 1.01 | 0.963 | 1.03 | 1 | 1.08 | 1.02 | 1.03 | 1.06 | 0.824 | 0.836 | 0.766 | 0.89 | 0.808 | 1.01 |
| NCI-H596 | 1.06 | 0.806 | 1.04 | 1.14 | 1.04 | 1.02 | 0.927 | 1.01 | 0.92 | 1.11 | 1.17 | 1.06 | 1.01 | 0.983 | 0.759 | 0.685 | 0.772 | 0.792 | 0.859 | 1.1 |
